Patent publication US11926616B2, “Aminopyrazine diol compounds as PI3K-γ inhibitors” (Incyte Corporation, priority 2018, dated 2024)

Assays:
[1] = test system: Phosphorylated Ribosomal Protein S6 (RPS6) in THP-1 cells; assay: THP-1 RPS6 ELISA Assay; assay type: cell-based, Human; details: Homo sapiens; THP-1 cells, serum starved, 2 hours compound, 10 nM MCP-1 for 15 minutes, Phospho-RPS6 ELISA; read-out: PI3Kγ_THP1_RPS6_ELISA IC50
Experimental: Example A. THP-1 RPS6 ELISA Assay
To measure the Phosphorylated Ribosomal Protein S6 (RPS6) in cell lysates, THP-1 cells (Human Acute Monocytic Leukemia) are purchased from ATCC (Manassas, VA) and maintained in RPMI with 10% FBS (Gibco/Life Technologies, Carlsbad, CA). For the assay, THP-1 cells are serum starved overnight in RPMI, then plated in RPMI (2×10^5 cells/well in 90 μL) into 96-well flat-bottom tissue culture treated plates (Corning, Corning, NY), in the presence or absence of a concentration range of test compounds. Covered plates are incubated for 2 hours at 37° C., 5% CO2 then treated with or without 10 nM MCP-1(MYBioSource, San Diego, CA) for 15 minutes at 37° C., 5% CO2. Plates are centrifuged at 1600 RPM and supernatants are removed. Cells are lysed in Lysis Buffer (Cell Signaling, Danvers, MA) with Protease Inhibitor (Calbiochem/EMD, Germany), PMSF (Sigma, St Louis MO), HALTS (Thermo Fisher, Rockford, IL) for 30 min on wet ice. Cell lysates are frozen at −80° C. before testing. The lysates are tested in the Human/Mouse/Rat Phospho-RPS6 ELISA (R&D Systems, Inc. Minn, MN). The plate is measured using a microplate reader (SpectraMax M5—Molecular Devices, LLC Sunnyvale, CA) set to 450 nm with a wavelength correction of 540. IC50 determination is performed by fitting the curve of inhibitor percent inhibition versus the log of the inhibitor concentration using the GraphPad Prism 5.0 software.

[2] = target: PI3Kγ (p110γ) Recombinant Human Protein (Homo sapiens (Human), UniProt P48736); assay: PI3K-γ Scintillation Proximity Assay; assay type: biochemical; details: 20 μM PIP2, 2 μM ATP, 13 nM PI3Kγ, 120 min, room temperature
Sequence of PI3Kγ (p110γ) Recombinant Human Protein (P48736 whole entry): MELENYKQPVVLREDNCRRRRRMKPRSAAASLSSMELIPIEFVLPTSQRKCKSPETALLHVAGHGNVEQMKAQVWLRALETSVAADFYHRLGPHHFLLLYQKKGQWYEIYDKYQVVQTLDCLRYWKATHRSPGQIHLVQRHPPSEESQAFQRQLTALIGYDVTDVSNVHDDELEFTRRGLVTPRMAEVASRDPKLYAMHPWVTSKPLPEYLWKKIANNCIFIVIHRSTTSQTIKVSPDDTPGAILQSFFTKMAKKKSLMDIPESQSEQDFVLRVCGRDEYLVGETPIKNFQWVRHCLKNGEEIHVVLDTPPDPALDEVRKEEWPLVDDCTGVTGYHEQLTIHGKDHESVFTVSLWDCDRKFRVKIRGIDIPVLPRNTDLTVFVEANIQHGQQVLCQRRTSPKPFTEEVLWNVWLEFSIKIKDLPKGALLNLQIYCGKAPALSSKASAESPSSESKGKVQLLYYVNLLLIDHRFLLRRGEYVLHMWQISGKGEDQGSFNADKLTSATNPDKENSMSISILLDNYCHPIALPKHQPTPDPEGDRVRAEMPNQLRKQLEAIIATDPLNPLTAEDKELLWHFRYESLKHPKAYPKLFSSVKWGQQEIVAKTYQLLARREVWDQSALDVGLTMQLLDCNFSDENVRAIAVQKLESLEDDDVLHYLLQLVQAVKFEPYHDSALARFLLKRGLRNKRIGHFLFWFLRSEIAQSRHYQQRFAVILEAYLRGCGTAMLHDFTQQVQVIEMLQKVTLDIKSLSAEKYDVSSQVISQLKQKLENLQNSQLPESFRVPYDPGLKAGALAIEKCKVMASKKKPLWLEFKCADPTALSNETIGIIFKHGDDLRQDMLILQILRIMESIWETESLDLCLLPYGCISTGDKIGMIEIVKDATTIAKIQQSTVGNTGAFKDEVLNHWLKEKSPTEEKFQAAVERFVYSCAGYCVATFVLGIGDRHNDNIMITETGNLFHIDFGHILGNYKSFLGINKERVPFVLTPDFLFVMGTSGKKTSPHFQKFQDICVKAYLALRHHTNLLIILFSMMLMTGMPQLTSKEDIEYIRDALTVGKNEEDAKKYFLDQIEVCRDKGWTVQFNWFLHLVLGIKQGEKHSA
Description: Example B. PI3K-γ Scintillation Proximity Assay Materials: [γ-^33P]ATP (10 mCi/mL) and Wheat Germ Agglutinin (WGA) YSi SPA Scintillation Beads was purchased from Perkin Elmer (Waltham, MA). Lipid kinase substrate, D-myo-Phosphatidylinositol 4,5-bisphosphate (PtdIns(4,5)P2)D (+)-sn-1,2-di-O-octanoylglyceryl, 3-O-phospho linked (PIP2), CAS 204858-53-7, was purchased from Echelon Biosciences (Salt Lake City, UT). PI3Kγ (p110γ) Recombinant Human Protein was purchased from Life technology (Grand Island, NY). ATP, MgCl2, DTT, EDTA, MOPS and CHAPS were purchased from Sigma Aldrich (St. Louis, MO). The kinase reaction was conducted in polystyrene 384-well Greiner Bio-one white plate from Thermo Fisher Scientific in a final volume of 25 μL. Inhibitors were first diluted serially in DMSO and added to the plate wells before the addition of other reaction components. The final concentration of DMSO in the assay was 2%. The PI3Kγ assay was carried out at room temperature in 20 mM MOPS, pH 6.7, 10 mM MgCl2, 5 mM DTT and CHAPS 0.03%. Reactions were initiated by the addition of ATP, the final reaction mixture consisted of 20 μM PIP2, 2 μM ATP, 0.5 μCi [γ-^33P] ATP, 13 nM PI3Kγ. Reactions were incubated for 120 min and terminated by the addition of 40 μL SPA beads suspended in quench buffer: 163 mM potassium phosphate pH 7.8, 20% glycerol, 25 mM EDTA. The final concentration of SPA beads is 1.0 mg/mL. After the plate sealing, plates were shaken overnight at room temperature and centrifuged at 1500 rpm for 10 min, the radioactivity of the product was determined by scintillation counting on Topcount (Perkin-Elmer). IC50 determination was performed by fitting the curve of percent of the solvent control activity versus the log of the inhibitor concentration using the GraphPad Prism 6.0 software.

[3] = target: PI3Kδ (p110δ/p85α) Recombinant Human Protein (Homo sapiens (Human), UniProt O00329); assay: PI3Kδ Scintillation Proximity Assay; assay type: biochemical; details: 20 μM PIP2, 2 μM ATP, 3.4 nM PI3Kδ, 120 min, room temperature
Sequence of PI3Kδ (p110δ/p85α) Recombinant Human Protein (O00329 whole entry): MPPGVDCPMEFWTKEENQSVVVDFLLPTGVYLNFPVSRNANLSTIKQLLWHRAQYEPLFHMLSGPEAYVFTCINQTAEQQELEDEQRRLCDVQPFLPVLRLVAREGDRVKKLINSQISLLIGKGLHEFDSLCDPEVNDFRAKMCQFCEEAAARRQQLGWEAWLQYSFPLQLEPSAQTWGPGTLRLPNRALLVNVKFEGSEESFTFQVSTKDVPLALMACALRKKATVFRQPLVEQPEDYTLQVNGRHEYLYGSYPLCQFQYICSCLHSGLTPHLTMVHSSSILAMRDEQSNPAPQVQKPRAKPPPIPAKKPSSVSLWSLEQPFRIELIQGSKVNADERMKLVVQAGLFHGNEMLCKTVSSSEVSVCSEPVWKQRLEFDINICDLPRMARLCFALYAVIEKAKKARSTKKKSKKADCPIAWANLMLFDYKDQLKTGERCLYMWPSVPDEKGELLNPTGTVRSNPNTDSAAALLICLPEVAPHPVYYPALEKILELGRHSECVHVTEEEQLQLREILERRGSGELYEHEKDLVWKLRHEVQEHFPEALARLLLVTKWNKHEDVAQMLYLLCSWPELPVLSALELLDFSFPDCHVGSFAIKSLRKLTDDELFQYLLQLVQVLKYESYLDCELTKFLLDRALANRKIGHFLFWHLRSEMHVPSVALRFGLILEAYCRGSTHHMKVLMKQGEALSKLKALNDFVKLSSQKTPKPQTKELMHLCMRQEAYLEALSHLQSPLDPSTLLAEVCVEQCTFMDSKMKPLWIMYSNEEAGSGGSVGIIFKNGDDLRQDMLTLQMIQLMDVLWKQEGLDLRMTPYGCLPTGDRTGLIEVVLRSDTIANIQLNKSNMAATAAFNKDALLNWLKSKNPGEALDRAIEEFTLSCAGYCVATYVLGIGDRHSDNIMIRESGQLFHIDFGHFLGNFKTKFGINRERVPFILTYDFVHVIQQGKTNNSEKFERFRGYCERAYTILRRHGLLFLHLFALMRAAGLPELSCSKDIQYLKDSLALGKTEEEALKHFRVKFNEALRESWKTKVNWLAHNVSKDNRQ
Sequence of PI3Kδ (p110δ/p85α) Recombinant Human Protein (P27986 whole entry partner): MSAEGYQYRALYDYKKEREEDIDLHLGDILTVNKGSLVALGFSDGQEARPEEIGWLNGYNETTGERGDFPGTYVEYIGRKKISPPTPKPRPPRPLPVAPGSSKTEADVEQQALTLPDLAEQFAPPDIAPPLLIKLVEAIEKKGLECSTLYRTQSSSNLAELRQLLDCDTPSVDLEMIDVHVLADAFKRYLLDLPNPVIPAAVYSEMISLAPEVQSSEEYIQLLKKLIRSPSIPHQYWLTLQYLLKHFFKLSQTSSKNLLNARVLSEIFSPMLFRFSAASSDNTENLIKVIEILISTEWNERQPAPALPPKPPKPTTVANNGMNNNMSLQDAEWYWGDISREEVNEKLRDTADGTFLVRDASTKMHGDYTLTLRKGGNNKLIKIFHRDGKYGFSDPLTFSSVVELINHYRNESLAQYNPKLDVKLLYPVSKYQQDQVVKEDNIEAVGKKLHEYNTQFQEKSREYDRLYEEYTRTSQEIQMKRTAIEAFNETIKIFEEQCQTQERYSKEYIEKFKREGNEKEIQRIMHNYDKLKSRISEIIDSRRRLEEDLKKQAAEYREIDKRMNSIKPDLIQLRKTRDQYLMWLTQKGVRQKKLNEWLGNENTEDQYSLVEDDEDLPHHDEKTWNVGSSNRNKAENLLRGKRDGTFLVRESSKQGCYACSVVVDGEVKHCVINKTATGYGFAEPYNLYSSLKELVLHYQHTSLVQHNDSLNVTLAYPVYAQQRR
Description: Example C. PI3Kδ Scintillation Proximity Assay Materials: [γ-^33P]ATP (10 mCi/mL) and Wheat Germ Agglutinin (WGA) YSi SPA Scintillation Beads was purchased from Perkin Elmer (Waltham, MA). Lipid kinase substrate, D-myo-Phosphatidylinositol 4,5-bisphosphate (PtdIns(4,5)P2)D (+)-sn-1,2-di-O-octanoylglyceryl, 3-O-phospho linked (PIP2), CAS 204858-53-7, was purchased from Echelon Biosciences (Salt Lake City, UT). PI3Kδ (p110δ/p85α) Recombinant Human Protein was purchased from Eurofins (St Charles, MO). ATP, MgCl2, DTT, EDTA, MOPS and CHAPS were purchased from Sigma Aldrich (St. Louis, MO). The kinase reaction was conducted in polystyrene 384-well Greiner Bio-one white plate from Thermo Fisher Scientific in a final volume of 25 μL. Inhibitors were first diluted serially in DMSO and added to the plate wells before the addition of other reaction components. The final concentration of DMSO in the assay was 2%. The PI3Kδ assay was carried out at room temperature in 20 mM MOPS, pH 6.7, 10 mM MgCl2, 5 mM DTT and CHAPS 0.03%. Reactions were initiated by the addition of ATP, the final reaction mixture consisted of 20 μM PIP2, 2 μM ATP, […] [γ-^33P] ATP, 3.4 nM PI3Kδ. Reactions were incubated for 120 min and terminated by the addition of 40 μL SPA beads suspended in quench buffer: 163 mM potassium phosphate pH 7.8, 20% glycerol, 25 mM EDTA. The final concentration of SPA beads is 1.0 mg/mL. After the plate sealing, plates were shaken overnight at room temperature and centrifuged at 1500 rpm for 10 min, the radioactivity of the product was determined by scintillation counting on Topcount (PerkinElmer). IC50 determination was performed by fitting the curve of percent of the solvent control activity versus the log of the inhibitor concentration using the GraphPad Prism 6.0 software.

Structure (SMILES)	IC50 [1]	IC50 [2]	IC50 [3]
Cc1ccc(C(O)(CO)C(F)F)cc1-c1cnc(N)c(C(=O)NC2(C)CCOC2)n1 [Example 47, 3-amino-6-(5-((S)-1,1-difluoro-2,3-dihydroxypropan-2-yl)-2-methylphenyl)-N-(3-methyltetrahydrofuran-3-yl)pyrazine-2-carboxamide]	< 0.1 µM	≤ 0.1 µM	≤ 0.1 µM
[2H]C([2H])([2H])c1ccc(C(O)(CO)C(F)F)cc1-c1cnc(N)c(C(=O)NC2CCOCC2)n1 (single isomer, unassigned) [Example 41]	< 0.1 µM	≤ 0.1 µM	≤ 0.1 µM
[2H]C([2H])([2H])c1ccc(C(O)(CO)C(F)F)cc1-c1cnc(N)c(C(=O)NC23CCC(C#N)(C2)C3)n1 (single isomer, unassigned) [Example 40]	< 0.1 µM	≤ 0.1 µM	≤ 0.1 µM
Cc1ncc(-c2nc(-c3cc(C(O)(CO)C(F)(F)F)ccc3C)cnc2N)o1 (single isomer, unassigned) [Example 9, 2-(3-(5-Amino-6-(2-methyloxazol-5-yl)pyrazin-2-yl)-4-methylphenyl)-3,3,3-trifluoropropane-1,2-diol]	< 0.1 µM	≤ 0.1 µM	≤ 0.1 µM
Cc1ccc(C(O)(CO)C(F)(F)F)cc1-c1cnc(N)c(C2CN(S(=O)(=O)c3ccn(C)n3)C2)n1 (stereo not drawn) [Example 23, 2-(3-(5-Amino-6-(1-((1-methyl-1H-pyrazol-3-yl)sulfonyl)azetidin-3-yl)pyrazin-2-yl)-4-methylphenyl)-3,3,3-trifluoropropane-1,2-diol]	< 0.5 µM	≤ 0.1 µM	≤ 0.5 µM
[2H]C([2H])([2H])c1ccc(C(O)(CO)C(F)F)cc1-c1cnc(N)c(C(=O)N[C@@H]2CCCC[C@H]2O)n1 (single isomer, unassigned) [Example 39]	< 0.5 µM	≤ 0.1 µM	< 2 µM
[2H]C([2H])([2H])c1ccc(C(O)(CO)C(F)(F)F)cc1-c1cnc(N)c(C(=O)NC2CCOCC2O)n1 (single isomer, unassigned) [Example 28]	< 0.1 µM	≤ 0.1 µM	≤ 0.5 µM
Cc1ccc(C(O)(CO)C(F)(F)F)cc1-c1cnc(N)c(C2CC(C(=O)N3CC(O)C3)C2)n1 (single isomer, unassigned) [Example 24, (3-(3-Amino-6-(2-methyl-5-(1,1,1-trifluoro-2,3-dihydroxypropan-2-yl)phenyl)pyrazin-2-yl)cyclobutyl)(3-hydroxyazetidin-1-yl)methanone]	< 0.5 µM	≤ 0.1 µM	≤ 0.5 µM
[2H]C([2H])([2H])c1ccc(C(O)(CO)C(F)(F)F)cc1-c1cnc(N)c(C(=O)N[C@H]2CCCC[C@@H]2O)n1 (single isomer, unassigned) [Example 27]	< 0.1 µM	≤ 0.1 µM	≤ 0.5 µM
[2H]C([2H])([2H])c1ccc(C(O)(C(O)C(F)(F)F)C(F)(F)F)cc1-c1cnc(N)c(-c2c[nH]nc2C)n1 (stereo not drawn) [Example 21, 2-(3-(5-Amino-6-(3-methyl-1H-pyrazol-4-yl)pyrazin-2-yl)-4-(methyl-d3)phenyl)-1,1,1,4,4,4-hexafluorobutane-2,3-diol]	< 0.1 µM	≤ 0.1 µM	≤ 0.1 µM
[2H]C([2H])([2H])n1nccc1-c1nc(-c2cc(C(O)(CO)C(F)(F)F)ccc2C)cnc1N (single isomer, unassigned) [Example 1a, 2-(3-(5-Amino-6-(1-(methyl-d3)-1H-pyrazol-5-yl)pyrazin-2-yl)-4-methylphenyl)-3,3,3-trifluoropropane-1,2-diol]	< 0.1 µM	≤ 0.1 µM	≤ 0.1 µM
[2H]C([2H])([2H])c1ccc(C(O)(CO)C(F)F)cc1-c1cnc(N)c(C(=O)N[C@H]2CCCC[C@@H]2O)n1 (single isomer, unassigned) [Example 38]	< 0.5 µM	≤ 0.1 µM	< 2 µM
